Results on three compounds are retold here after patent US4587342A, “2,4-diamino-(substituted-benzopyran(quinolyl,isoquinoly)methyl)pyrimidine s useful as antibacterials” (priority 1980, dated 1986).

Data set [1] can be described thus: Acute toxicity in rat. To be noted: in vivo, po; p.o. rat.
A short description of data set [2]: Acute toxicity in mouse. To be noted: in vivo, ip; i.p. mouse.
In data set [3] the test system is St. faecalis CN478. The data set can be described thus: MIC against St. faecalis CN478 in vitro. The class given is cell-based. To be noted: Enterococcus faecalis, read-out: Minimum Inhibitory Concentration (MIC). From the text:
(§1) The compounds of the present invention were subjected to standard tests in order to determine the minimum inhibitory concentration in μg/ml needed to inhibit a range of bacterial microorganisms in-vitro.

Data set [4] deals with Vibrio cholerae ATCC14035. The data set can be described thus: MIC against Vibrio cholerae ATCC14035 in vitro. It counts as cell-based. To be noted: ATCC14035, read-out: Minimum Inhibitory Concentration (MIC).
Excerpt: as §1

Data set [5] has as its system Esch. coli CN314. The data set can be described thus: MIC against Esch. coli CN314 in vitro. The class given is cell-based. To be noted: Escherichia coli, read-out: Minimum Inhibitory Concentration (MIC).
Excerpt: as §1

Data set [6] relates to Pr. mirabilis S2409. The data set can be described thus: MIC against Pr. mirabilis S2409 in vitro. To be noted: Proteus mirabilis, read-out: Minimum Inhibitory Concentration (MIC). The class given is cell-based.
Excerpt: as §1

Data set [7] deals with Meningococci. The data set can be described thus: MIC against Meningococci in vitro. It counts as cell-based. To be noted: Meningococci (average 5 strains); read-out: Minimum Inhibitory Concentration (MIC).
Excerpt: as §1

Data set [8] concerns B. fragilis. The data set can be described thus: MIC against B. fragilis in vitro. The class given is cell-based. To be noted: Bacteroides fragilis; B. fragilis (average 3-10 strains); read-out: Minimum Inhibitory Concentration (MIC).
Excerpt: as §1

Data set [9] deals with Salmonella dublin. Put plainly: Experimental salmonellosis in calves. It counts as in vivo. To be noted: for Mortality: 5 days from two days after infection, deaths/calves.
The subject of data set [10] is St. agalactiae CN1143. The data set can be described thus: MIC against St. agalactiae CN1143 in vitro. The class given is cell-based. To be noted: Streptococcus agalactiae, read-out: Minimum Inhibitory Concentration (MIC).
Excerpt: as §1

Data set [11] deals with four individual gram negative microorganisms and one isolate of S. aureus. Put plainly: Checkerboard potentiation study with SMX, overall. To be noted: words. The class given is cell-based. As for the experimental part: 2. Compound Preparation. Compound 1, trimethoprim (TMP) and SMX were each treated with N,N-dimethylformamide for 30 minutes. Dilutions were prepared using sterile distilled water.
3. Testing procedure. Two checkerboard patterns were set-up, namely: 1. SMX and TMP-lactate and 2. SMX and compound 1-lactate. Thirteen, two-fold dilutions of compound 1-lactate were prepared with final concentrations ranging from 6.2 ug/ml to 0.0016 ug/ml. Twenty two, two-fold dilutions of SMX were prepared with final plate concentrations ranging from 31 ug/ml to 0.000016 ug/ml. An analogous checkerboard scheme was set-up for the combination TMP and SMX. Microorganisms were grown on Wellcotest Sensitivity Test Agar containing various concentrations and permutations of compounds.
From the MIC's, a fractional inhibitory concentration (FIC) was calculated. This involves determining a fraction by dividing the MIC of an agent in combination over the MIC of the agent alone (1). If it is less than one, the interaction is synergistic, and if the sum is greater than one, the combination is antagonistic.

Data set [12] concerns Staph. aureus CN491. Put plainly: MIC against Staph. aureus CN491 in vitro. The class given is cell-based. To be noted: Staphylococcus aureus, read-out: Minimum Inhibitory Concentration (MIC).
Excerpt: as §1

In data set [13] the test system is Gonococci. Put plainly: MIC against Gonococci in vitro. It counts as cell-based. To be noted: Gonococci (average 17 strains); read-out: Minimum Inhibitory Concentration (MIC).
Excerpt: as §1

In data set [14] the test system is Salmonella dublin. To be noted: even at 40 mg/kg/day; cited from earlier work.
Data set [15] deals with anaerobic bacteria. To be noted: general statement on trimethoprim; cited from earlier work.
For data set [16], the system named is aerobic bacteria. To be noted: general statement on trimethoprim; cited from earlier work.
The subject of data set [17] is Staph. aureus. The data set can be described thus: MIC vs Staph. aureus (Table 2). It counts as cell-based. To be noted: Staphylococcus aureus, strain not given.
Excerpt: as §1

[18] abbreviates: 1 mg/kg daily plus SDZ 20 mg/kg.

≈ marks a conversion by molar mass, not a printed value. Entries after “also recorded” stand apart in the source; their conditions may differ.

`COc1cc(Cc2cnc(N)nc2N)c2c(c1OC)OCC=C2` [Compound 1, 2,4-Diamino-5-(7,8-dimethoxy-2 --H--1-benzopyran-5-ylmethyl)-pyrimidine]: the LD50 is more than 1000 mg/kg in data set [1] and 610 mg/kg in data set [2]. In addition, the MIC amounted to 0.05 µg/mL (≈ 0.159 µM) in data set [3]; 0.05 µg/mL (≈ 0.159 µM) in data set [4]; 0.05 µg/mL (≈ 0.159 µM) in data set [5]; 5 µg/mL (≈ 15.9 µM) in [6]; 3.1 µg/mL (≈ 9.86 µM) in data set [7]; 1.08 µg/mL (≈ 3.44 µM) in data set [8]. Moreover, the MIC came to 0.05 µg/mL (≈ 0.159 µM) in data set [10], 0.05 µg/mL (≈ 0.159 µM) in [12] and 10 µg/mL (≈ 31.8 µM) in data set [13]. The Mortality was 3/7 in data set [9] (0.5 mg/kg daily plus SDZ 20 mg/kg) and 0/6 in [9] (setting [18]). Moreover, the “reduction of mortality, in words” value in data set [9] (0.5 mg/kg plus SDZ 20 mg/kg, in comparison with TMP 1 mg/kg) was “produced a reduction of mortality comparable with that in group 1 (TMP, 1 mg/kg)”. For the same compound, the “efficacy relative to TMP” value in data set [9] (1 mg/kg each, plus SDZ 20 mg/kg) is on record as “clearly superior to TMP at 1 mg/kg”. Moreover, the “recovery of the survivors” value in data set [9] (1 mg/kg plus SDZ 20 mg/kg, in comparison with TMP 1 mg/kg (group 1)) was “much more rapid recovery of the survivors in group 2”. The “effectiveness relative to TMP” value in data set [9] (with SDZ 20 mg/kg, conclusion from all groups) was “approximately twice as effective as TMP in this disease syndrome”. The “in vitro potentiation with SMX” value in data set [11] is “SMX appears to potentiate compound 1 as well as it does TMP; also recorded: in vitro potentation can be demonstrated between SMX and compound 1 in the case of four individual gram negative microorganisms and one isolate of S. aureus”.

Turning to `Nc1ccc(S(=O)(=O)Nc2ncccn2)cc1` [SDZ], the “effect on mortality, SDZ alone” value in data set [14] was “no effect on mortality in this disease model”.

Turning to `COc1cc(Cc2cnc(N)nc2N)cc(OC)c1OC` [TMP, 2,4-diamino-5-(3,4,5-trimethoxybenzyl)pyrimidine, reference compound], the “level of activity against anaerobic bacteria” value in data set [15] is “activity against anaerobic bacteria is less impressive”. Also, the MIC in data set [3] turned out to be 0.1 µg/mL (≈ 0.344 µM); in data set [4] it was 0.5 µg/mL (≈ 1.72 µM); in data set [5] it was 0.05 µg/mL (≈ 0.172 µM); in [6] it was 5 µg/mL (≈ 17.2 µM); in data set [7] it was 18 µg/mL (≈ 62 µM); in [8] it was 4 µg/mL (≈ 13.8 µM). Further, the MIC in [17] is 0.5 µg/mL (≈ 1.72 µM); in data set [10] it was 0.5 µg/mL (≈ 1.72 µM); in data set [12], 0.5 µg/mL (≈ 1.72 µM); in data set [13] it was 37.1 µg/mL (≈ 128 µM). In addition, the “level of activity against aerobic bacteria” value in data set [16] is listed as “excellent level of activity against most aerobic bacteria”. Also, the Mortality in data set [9] (setting [18]) is listed as 2/7.
